From PubChem BioAssay (NCI)
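Where inhibition never reached the appropriate level, the endpoint shown equals the highest concentration tested. Otherwise, values were interpolated linearly from a five-concentration, 48-hour dose response in 96-well plates. TGI marks complete inhibition of growth.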

Assays:
Assay in all cases: DTP human tumour cell line panel, 48 h
[1] = tested on: XF 498 CNS
[2] = tested on: DMS 273 small cell lung
[3] = tested on: DLD-1 colon
[4] = tested on: HOP-18 NSCLC

SMILES: CC#C[P+](c1ccccc1)(c1ccccc1)c1ccccc1
- TGI [1]: 7.26 µM
- TGI [2]: 10.6 µM
- TGI [3]: 16.7 µM
- TGI [4]: 25.4 µM
